The compounds below were run on PARP PARylation in HeLa cells (assay: PARylation assay in HeLa cells after H2O2). Conditions: Homo sapiens, 200 μM H2O2.
Type: cell-based
Procedure: HeLa cells were seeded into a 96-well plate with clear bottom and black wall at an initial concentration of 5000 cells/well in culture medium (100 μL of DMEM containing 10% FBS, 0.1 mg/mL penicillin-streptomycin, and 2 mML-glutamine). The plates were incubated for 4 h at 37° C. under 5% CO2 atmosphere, and then compounds were added with serial dilutions over eight points over a 0.01 nM-10 μM final concentration range in 0.1% DMSO/culture medium. The plate was then incubated for 18 h at 37° C. in 5% CO2. Then DNA damage was provoked by addition of 60 μL of H2O2 solution in PBS (final concentration 200 μM). As a negative control, cells untreated with H2O2 were used. The plate was kept at 37° C. for 5 min. Then the medium was gently removed by plate inversion, and the cells were fixed by addition of ice-cold MeOH (100 μL/well) and kept at −20° C. for 20 min. After removal of the fixative by plate inversion and washing 10 times with PBS (120 μL), the detection buffer (50 μL/well, containing PBS, Tween (0.1%), and BSA (1 mg/mL)) together with the primary PAR mAb (Alexis ALX-804-220, 1:2000), the secondary anti-mouse Alexa Fluor 488 antibody (MolecularProbes A11029, 1:2000), and nuclear dye DAPI (Molecular Probes D3571, 150 nM) were added. Following overnight incubation at 4° C. in the dark, removal of the solution, and washing 6 times with PBS (120 μL), the plate was read on an ArrayScan VTI (ThermoFisher). Monitoring for PAR polymer was by detection of Alexa488 at XF100_485_20, exposure time of 0.05 s, and identification of the nuclei was by tracking DAPI with XF100_386_23, exposure time of 0.01 s. The mean value of total intensity of cells was calculated by measuring the average of total intensity of nuclei over the total number of DAPI-labeled nuclei. The EC50 was determined on the basis of the residual enzyme activity in the presence of increasing PARPi concentration.

Compound	EC50 [nM]
O=c1[nH]nc2c3c(c(Cl)ccc13)NC1=C2CCCC1 [Example 9, 6-Chloro-8,9,10,11-tetrahydro-2H-pyridazino[5,4,3-kl]acridin-3(7H)-one]	43.2
O=c1[nH]nc2c3c(cccc13)NC1=C2CCN(Cc2ccccc2)C1 [Example 18, 9-benzyl-8,9,10,11-tetrahydro-2H-phthalazino[8,1-bc][1,7]naphthyridin-3(7H)-one]	9.7
Cc1ccc2c(=O)[nH]nc3c2c1NC1=C3CCCC1 [Example 5, 6-Methyl-8,9,10,11-tetrahydro-2H-pyridazino[5,4,3-kl]acridin-3(7H)-one]	477
CC(C)(C)OC(=O)N1CCC2=C(C1)Nc1cccc3c(=O)[nH]nc2c13 [Example 13, Tert-butyl 3-oxo-7,8,10,11-tetrahydro-2H-phthalazino[8,1-bc][1,7]naphthyridine-9(3H)-carboxylate]	0.7
O=c1[nH]nc2c3c(cccc13)NC1=C2CCCC1 [Example 2, 8,9,10,11-Tetrahydro-2H-pyridazino[5,4,3-kl]acridin-3 (7H)-one]	1.2
CC1(C(=O)N2CCC3=C(C2)Nc2cccc4c(=O)[nH]nc3c24)CC1 [Example 16, 9-(1-Methylcyclopropanecarbonyl)-8,9,10,11-tetrahydro-2H-phthalazino[8,1-bc][1,7]naphthyridin-3(7H)-one]	5.4
O=c1[nH]nc2c3c(c(Cl)ccc13)NC1=C2CCCCC1 [Example 8, 6-Chloro-7,8,9,10,11,12-hexahydrocyclohepta[5,6]pyrido[4,3,2-de]phthalazin-3(2H)-one]	43.2
O=c1[nH]nc2c3c(c(Br)ccc13)NC1=C2CCCC1 [Example 7, 6-Bromo-8,9,10,11-tetrahydro-2H-pyridazino[5,4,3-kl]acridin-3(7H)-one]	32
O=c1[nH]nc2c3c(cccc13)NC1=C2c2ccccc2CC1 [Example 12, 8,9-Dihydro-2H-benzo[a]pyridazino[5,4,3-kl]acridin-3(7H)-one]	6.8
O=c1[nH]nc2c3c(cccc13)NC1=C2CCC1 [Example 10, 7,8,9,10-Tetrahydrocyclopenta[5,6]pyrido[4,3,2-de]phthalazin-3(2H)-one]	4.6
CC1(C)C(C(=O)N2CCC3=C(C2)Nc2cccc4c(=O)[nH]nc3c24)C1(C)C [Example 17, 9-(2,2,3,3-Tetramethylcyclopropanecarbonyl)-8,9,10,11-tetrahydro-2H-phthalazino[8,1-bc][1,7]naphthyridin-3(7H)-one]	0.9
O=c1[nH]nc2c3c(cccc13)NC1=C2CCCCC1 [Example 4, 7,8,9,10,11,12-Hexahydrocyclohepta[5,6]pyrido[4,3,2-de]phthalazin-3(2H)-one]	0.75
O=c1[nH]nc2c3c(c(Br)ccc13)NC1=C2CCCCC1 [Example 6, 6-Bromo-7,8,9,10,11,12-hexahydrocyclohepta[5,6]pyrido[4,3,2-de]phthalazin-3(2H)-one]	139
O=c1[nH]nc2c3c(cccc13)NC1=C2CCNC1 [Example 14, 8,9,10,11-Tetrahydro-2H-phthalazino[8,1-bc][1,7]naphthyridin-3 (7H)-one]	14
O=c1[nH]nc2c3c(cccc13)NC1=C2CCCCCC1 [Example 3, 8,9,10,11,12,13-Hexahydro-2H-cycloocta[5,6]pyrido[4,3,2-de]phthalazin-3(7H)-one]	0.6
CC(C)(NC(=O)OCc1ccccc1)C(=O)N1CCC2=C(C1)Nc1cccc3c(=O)[nH]nc2c13 [Example 15, Benzyl(2-methyl-1-oxo-1-(3-oxo-10,11-dihydro-2H-phthalazino[8,1-bc][1,7]naphthyridin-9(3H,7H,8H)-yl)propan-2-yl)carbamate]	269
CC1(C)CCC2=C(C1)c1n[nH]c(=O)c3cccc(c13)N2 [Example 1, 10,10-Dimethyl-8,9,10,11-tetrahydro-2H-pyridazino[5,4,3-kl]acridin-3(7H)-one]	0.8

Each compound was assayed against Tankyrase-2 (Homo sapiens (Human), UniProt Q9H2K2) (assay: biochemical). Conditions: read-out: Tankyrase-2 Inhibition @ 50 nM.
Chain of Tankyrase-2 (Q9H2K2 whole entry): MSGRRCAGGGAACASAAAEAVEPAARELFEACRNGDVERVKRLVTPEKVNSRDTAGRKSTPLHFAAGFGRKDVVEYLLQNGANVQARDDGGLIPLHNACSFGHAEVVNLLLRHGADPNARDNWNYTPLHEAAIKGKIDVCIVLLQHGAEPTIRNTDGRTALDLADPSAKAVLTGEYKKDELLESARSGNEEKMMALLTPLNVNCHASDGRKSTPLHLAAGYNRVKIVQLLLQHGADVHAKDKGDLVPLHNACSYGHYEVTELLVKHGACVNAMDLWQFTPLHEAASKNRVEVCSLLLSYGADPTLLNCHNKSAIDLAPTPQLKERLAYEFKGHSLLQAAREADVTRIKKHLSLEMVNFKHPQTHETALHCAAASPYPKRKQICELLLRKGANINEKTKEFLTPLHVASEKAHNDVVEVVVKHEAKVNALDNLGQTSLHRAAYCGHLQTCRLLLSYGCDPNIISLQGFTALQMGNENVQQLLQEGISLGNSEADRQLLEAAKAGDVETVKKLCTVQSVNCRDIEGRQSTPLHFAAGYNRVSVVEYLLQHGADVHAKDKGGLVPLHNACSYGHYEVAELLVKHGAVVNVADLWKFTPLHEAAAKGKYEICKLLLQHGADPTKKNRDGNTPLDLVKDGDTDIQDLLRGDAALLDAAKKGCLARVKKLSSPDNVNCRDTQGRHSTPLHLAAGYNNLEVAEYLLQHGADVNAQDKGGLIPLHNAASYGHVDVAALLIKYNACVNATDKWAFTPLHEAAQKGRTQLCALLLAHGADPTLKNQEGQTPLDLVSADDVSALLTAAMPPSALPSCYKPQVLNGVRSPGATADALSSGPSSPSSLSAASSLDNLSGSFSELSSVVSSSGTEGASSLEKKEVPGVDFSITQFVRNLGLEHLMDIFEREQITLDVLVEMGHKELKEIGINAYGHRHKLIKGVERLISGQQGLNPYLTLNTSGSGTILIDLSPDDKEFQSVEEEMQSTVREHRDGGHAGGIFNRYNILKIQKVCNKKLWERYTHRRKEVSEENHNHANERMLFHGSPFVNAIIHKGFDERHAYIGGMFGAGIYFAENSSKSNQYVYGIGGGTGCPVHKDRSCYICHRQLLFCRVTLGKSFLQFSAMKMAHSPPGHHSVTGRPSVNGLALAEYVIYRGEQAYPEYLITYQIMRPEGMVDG

Compound	inhibition at 0.05 µM [%]
O=c1[nH]nc2c3c(c(Cl)ccc13)NC1=C2CCCC1 [Example 9, 6-Chloro-8,9,10,11-tetrahydro-2H-pyridazino[5,4,3-kl]acridin-3(7H)-one]	14.1
O=c1[nH]nc2c3c(c(Cl)ccc13)NC1=C2CCCCC1 [Example 8, 6-Chloro-7,8,9,10,11,12-hexahydrocyclohepta[5,6]pyrido[4,3,2-de]phthalazin-3(2H)-one]	2.3
O=c1[nH]nc2c3c(cccc13)NC1=C2c2ccccc2CC1 [Example 12, 8,9-Dihydro-2H-benzo[a]pyridazino[5,4,3-kl]acridin-3(7H)-one]	14.3
